Measurements from patent US4117145A, “1-Substituted pyrazoles” (Bayer Aktiengesellschaft, priority 1975, dated 1978).

System: thromb formation (left jugular vein, rats)
Assay: Antithrombotic action: thromb formation in supercooled left jugular vein of rats, thromb weighed 4 hours later
Assay type: in vivo, rat
Method: The left jugular vein of rats weighing 170 to 180 g was exposed under ether narcosis and supercooled to -12° C for 2 minutes to stimulate thromb formation. The thromb was isolated from the vein 4 hours later, and was weighed. The test animals were given the test preparation in tragacanth mucilage immediately before supercooling the wall of the blood vessel. As a result, the protective antithrombotic activity was tested in the first 4 hours after stimulating thromb formation.

For `Cc1cc(OC(=O)c2ccco2)n(CCOc2ccc3ccccc3c2)n1` [Example 20, 5-(Furyl-(2)-carbonyloxy)-3-methyl-1-(2-(β-naphthyloxy)-ethyl)-pyrazole], the “reduction of size of the thrombs” value (after a 4 hour period of action) was 61%, the “Thromb size, mean value” (rats, 10 mg/kg, administered orally immediately before supercooling, thromb isolated 4 hours later, 12 experiments, control 115 ± 12 (14 experiments)) was 45 ± 10 µg and the Inhibition in % (rats, 10 mg/kg, administered orally, versus control animals without active compound) was 61%.
